System: native tau aggregates vs native β-amyloid aggregates in human brain sections
Assay: Autoradiography selectivity towards tau versus β amyloid in AD human brain tissue
Assay type: binding
Description: Based on the anti-tau and anti-amyloid immunostaining results of brain sections, three groups of human brain sections are selected for autoradiography experiments to determine the native tau-binding selectivity of 3-(3-[18F]-fluoroazetidin-1-yl)-8-methylbenzo[4,5]imidazo[1,2-a]pyridine. Group A are tau-rich AD brain slices (labeled as Tau+Aβ+), Group B are tau-poor AD brain slices (marked as Tau-Aβ+), and Group C are Tau-Aβ− normal brain slices. […] The human AD brain sections in Group B are #33562, #32656, #33998, #35682, and #33563. The normal human brain sections in group C are #29092 and #32566. Tissue slices from the same donors are used to calculate selectivity for all three compounds for testing according to Assay Example 5. Autoradiography is performed for each of these three groups of brains on adjacent 10 μm sections with the amyloid tracer [18F]W372 to quantify the β-amyloid burden. [18F]W372 is a selective amyloid binding tracer discovered by Siemens and evaluated under IND 105173. Sections are covered with 0.5 ml of 3-(3-[18F]-fluoroazetidin-1-yl)-8-methylbenzo[4,5]imidazo[1,2-a]pyridine (in 2.5:2.5:95 DMSO:EtOH:1×PBS, about 20 μCi/slide) and incubated for 1.5 hrs. Then successive washing cycles (1 min PBS, 2 min 30% EtOH/PBS, 2 min 70% EtOH/PBS, 1 min PBS) are employed to remove any unbound tracer. The sections are air dried, placed on a phosphorimaging plate (Fuji IP plate), and exposed overnight. The IP plate is read using a GE Healthcare Life Sciences Typhoon FLA 7000 Phosphorimager. The signal intensity of the grey matter is measured using Fujifilm Multi Gauge software. After subtracting the background signal (signal in the cortex region of Group C), the signal of individual sections of Group A and B are normalized with corresponding signal from autoradiography of the respective adjacent sections with [18F]W372. The calculations are based on Group B brain sections #32656 and #33998, which have undetectable tau pathology by immunohistochemistry. The normalized signal for 3-(3-[18F]-fluoroazetidin-1-yl)-8-methylbenzo[4,5]imidazo[1,2-a]pyridine in Group B brain sections is the relative signal level of 3-(3-[18F]-fluoroazetidin-1-yl)-8-methylbenzo[4,5]imidazo[1,2-a]pyridine to [F-18]W372 resulting from binding to native β-amyloid aggregates. The binding level of 3-(3-[18F]-fluoroazetidin-1-yl)-8-methylbenzo[4,5]imidazo[1,2-a]pyridine to native tau-aggregates in Group A sections is estimated by subtracting the amount of the total signal attributable to binding to 3-amyloid (calculated by multiplying the total signal from [18F]W372 binding to β-amyloid in the adjacent section by the relative signal of 3-(3-[18F]-fluoroazetidin-1-yl)-8-methylbenzo[4,5]imidazo[1,2-a]pyridine to [18F]W372 determined from the Group B sections). The resulting difference is then divided by the signal attributable to binding to β-amyloid to estimate the selectivity of 3-(3-[18F]-fluoroazetidin-1-yl)-8-methylbenzo[4,5]imidazo[1,2-a]pyridine. […] The selectivity of 3-(3-[18F]-fluoroazetidin-1-yl)-8-methylbenzo[4,5]imidazo[1,2-a]pyridine binding to native tau aggregates vs. binding native β-amyloid aggregates is reflected by the ratio of Group A (Tau+Aβ+) signal to the signal of the brain sections #32656 and #33998.

## Cc1ccc2nc3cc(N4CC([18F])C4)ccn3c2c1 [Compound 8, 3-(3-[18F]-fluoroazetidin-1-yl)-8-methylbenzo[4,5]imidazo[1,2-a]pyridine]
5 Tau+Aβ+ and 2 Tau-Aβ+ brain specimens
  selectivity ratio for Tau:Aβ: approximately 26.6±4.5
Group A (Tau+Aβ+) sections
  autoradiography signal on grey matter (cortex region): Strong signal
Group B (Tau-Aβ+) sections
  autoradiography signal on cortex regions: weak or no signal
Group C (Tau-Aβ−) normal brain sections
  autoradiography signal: No autoradiography signal
autoradiography, Tau+Aβ+ brain specimens
  grey matter to white matter (GM/WM) signal ratio: approximately 17.3±1.7
Grey matter region of human AD brains
  selectivity of binding to native tau aggregates vs native β-amyloid aggregates: approximately 27 fold
Normal brain sections
  autoradiography signal on normal brain sections, grey vs white matter: weak and even

From US10301308B2, “Azetidine derivatives for tau imaging” (Eli Lilly and Company, priority 2015, dated 2019)
